The record followed here is US12509469B2, “Compositions and methods for the treatment of pain and dependence disorders” (Ripple Therapeutics Corporation, priority 2019, dated 2025).

Data set [1] in a line: Drug release from heat-molded pellets in phosphate buffered saline (PBS). The data set is classed as physicochemical. Conditions: heat-molded pellet, 37° C., agitation at 115 rpm, HPLC. As to the method: Drug release from heat-molded pellets of Compound 1 (FIG. 1A) was assessed in phosphate buffered saline (PBS). Heat-molded pellets (FIG. 1B) were placed in 20 ml glass vials and 2 ml of release buffer was added. Samples were incubated at 37° C. with constant agitation at 115 rpm. Release buffer was sampled and fully replaced with 2 ml of fresh buffer daily with the exception of days 5, 6, 12, 13, and 14 (FIG. 1C). Samples were analyzed by high performance liquid chromatography (HPLC) to quantify drug products (FIG. 1D). Cumulative release was calculated as a percentage of total mass of starting pellets and was plotted over time.
Drug release from heat-molded pellets of Compound 3-7 and Compound 9-12 were assessed in phosphate buffered saline (PBS). Heat-molded pellets were placed in 20 ml glass vials and 2 ml of release buffer was added. Samples were incubated at 37° C. with constant agitation at 115 rpm. Release buffer was sampled and fully replaced with 2 ml of fresh buffer on days 1, 3, 7, 10, and 14. Samples were analyzed by high performance liquid chromatography (HPLC) to quantify drug products. Cumulative release was calculated as a percentage of total mass of starting pellets and was plotted over time.

The nature of data set [2]: Heat processing of compounds: pellet formation by heat molding. The data set is classed as physicochemical. Conditions: for Pellet formation?: heat molding, cylindrical mold ~1 mm in height x 1 mm in diameter; for Pellet formation by heat molding (result in words): heat molding 10° C. to 30° C. above thermal transition, pressed into cylindrical mold. The procedure:
Compounds were formed into pellets by heat molding. Powders of Compound 1-7 and Compounds 9-12 were processed at a temperature from between about 10° C. to 30° C. above their thermal transitions (e.g., glass transition temperature (Tg) for amorphous powders or melting point (Tm) for crystalline powders) of the given compound (e.g., from about 70° C. (Compound 9) to about 220° C. (Compound 2)), and pressed into a cylindrical mold of ˜1 mm in height×1 mm in diameter. Light microscopy was used to capture images of the heat-formed pellets.
These pellets had the appropriate processing properties to be tested as articles for drug delivery applications.
Compounds 16, 22, and 23 were also tested for pellet formation using a similar method as compounds 1-7 and 9-12. […] The recovered form was soft and tacky and could not be easily handled.

In the case of `C=CCN1CC[C@]23c4c5ccc(OC(=O)CCCCC(=O)Oc6ccc7c8c6O[C@H]6C(=O)CC[C@@]9(O)[C@@H](C7)N(CC=C)CC[C@]869)c4O[C@H]2C(=O)CC[C@@]3(O)[C@H]1C5` [Compound 1, bis((4R,4aS,7aR,12bS)-3-allyl-4a-hydroxy-7-oxo-2,3,4,4a,5,6,7,7a-octahydro-1H-4,12-methanobenzofuro[3,2-e]isoquinolin-9-yl) adipate], in data set [1], the “Release in phosphate buffered saline (PBS): near zero order for” value (“Release in phosphate buffered saline” below) was “Near zero order for > 7 days”. Further, in data set [2], the “Pellet formation?” value is given as “✓ (FIG. 1B)”.

For the compound `O=C(CCCCC(=O)Oc1ccc2c3c1O[C@H]1C(=O)CC[C@@]4(O)[C@@H](C2)N(CC2CC2)CC[C@]314)Oc1ccc2c3c1O[C@H]1C(=O)CC[C@@]4(O)[C@@H](C2)N(CC2CC2)CC[C@]314` [Compound 2, bis((4R,4aS,7aR,12bS)-3-(cyclopropylmethyl)-4a-hydroxy-7-oxo-2,3,4,4a,5,6,7,7a-octahydro-1H-4,12-methanobenzofuro[3,2-e]isoquinolin-9-yl) adipate], the “Pellet formation by heat molding (result in words)” value (from here on “Pellet formation by heat molding”) in data set [2] is given as “didn't form a viscous liquid that could be pressed into a pellet”.

Take `C=C1CC[C@@]2(O)[C@H]3Cc4ccc(OC(=O)CCCCC(=O)Oc5ccc6c7c5O[C@H]5C(=C)CC[C@@]8(O)[C@@H](C6)N(CC6CC6)CC[C@]758)c5c4[C@@]2(CCN3CC2CC2)[C@H]1O5` [Compound 3, bis((4R,4aS,7aS,12bS)-3-(cyclopropylmethyl)-4a-hydroxy-7-methylene-2,3,4,4a,5,6,7,7a-octohydro-1H-4,12-methanobenzofuro[3,2-e]isoquinolin-9-yl) adipate]: in data set [1], the “Release in phosphate buffered saline” value is recorded as “Near zero order for > 7 days”. The “Pellet formation?” value in data set [2] is “✓ (FIG. 4B)”.

On to `C=CCN1CC[C@]23c4c5ccc(OC(=O)CCCCCCCCC(=O)Oc6ccc7c8c6O[C@H]6C(=O)CC[C@@]9(O)[C@@H](C7)N(CC=C)CC[C@]869)c4O[C@H]2C(=O)CC[C@@]3(O)[C@H]1C5` [Compound 4, bis((4R,4aS,7aR,12bS)-3-allyl-4a-hydroxy-7-oxo-2,3,4,4a,5,6,7,7a-octahydro-1H-4,12-methanobenzofuro[3,2-e]isoquinolin-9-yl) decanedioate], for which, in data set [1], the “Release in phosphate buffered saline” value was “Near zero order for > 7 days”. Further, the “Pellet formation?” value in data set [2] is given as “✓ (FIG. 5B)”.

As to `C=CCN1CC[C@]23c4c5ccc(OC(=O)OCC6CCC(COC(=O)Oc7ccc8c9c7O[C@H]7C(=O)CC[C@@]%10(O)[C@@H](C8)N(CC=C)CC[C@]97%10)CC6)c4O[C@H]2C(=O)CC[C@@]3(O)[C@H]1C5` (stereo partly drawn) [Compound 5, bis((4R,4aS,7aR,12bS)-3-allyl-4a-hydroxy-7-oxo-2,3,4,4a,5,6,7,7a-octahydro-1H-4,12-methanobenzofuro[3,2-e]isoquinolin-9-yl) (cyclohexane-1,4-diylbis(methylene)) bis(carbonate)], the “Release in phosphate buffered saline” value in data set [1] is “Near zero order for > 7 days”.

As for `O=C(CCCCCCCCC(=O)Oc1ccc2c3c1O[C@H]1C(=O)CC[C@@]4(O)[C@@H](C2)N(CC2CC2)CC[C@]314)Oc1ccc2c3c1O[C@H]1C(=O)CC[C@@]4(O)[C@@H](C2)N(CC2CC2)CC[C@]314` [Compound 6, bis((4R,4aS,7aR,12bS)-3-(cyclopropylmethyl)-4a-hydroxy-7-oxo-2,3,4,4a,5,6,7,7a-octahydro-1H-4,12-methanobenzofuro[3,2-e]isoquinolin-9-yl) decanedioate], the “Release in phosphate buffered saline” value in data set [1] is listed as “Near zero order for > 7 days”. Further, in data set [2], the “Pellet formation?” value is “✓ (FIG. 7B)”.

As for `O=C(Oc1ccc2c3c1O[C@H]1C(=O)CC[C@@]4(O)[C@@H](C2)N(CC2CC2)CC[C@]314)C1CCC(C(=O)Oc2ccc3c4c2O[C@H]2C(=O)CC[C@@]5(O)[C@@H](C3)N(CC3CC3)CC[C@]425)CC1` (stereo partly drawn) [Compound 7, bis((4R,4aS,7aR,12bS)-3-(cyclopropylmethyl)-4a-hydroxy-7-oxo-2,3,4,4a,5,6,7,7a-octahydro-1H-4,12-methanobenzofuro[3,2-e]isoquinolin-9-yl) cyclohexane-1,4-dicarboxylate], in data set [1], the “Release in phosphate buffered saline” value is on record as “Near zero order for > 7 days”.

As for `O=C(Oc1ccc2c3c1O[C@H]1C(=O)CC[C@@]4(O)[C@@H](C2)N(CC2CC2)CC[C@]314)c1ccc(C(=O)Oc2ccc3c4c2O[C@H]2C(=O)CC[C@@]5(O)[C@@H](C3)N(CC3CC3)CC[C@]425)cc1` [Compound 8, bis((4R,4aS,7aR,12bS)-3-(cyclopropylmethyl)-4a-hydroxy-7-oxo-2,3,4,4a,5,6,7,7a-octahydro-1H-4,12-methanobenzofuro[3,2-e]isoquinolin-9-yl) terephthalate], the “Pellet formation by heat molding” value in data set [2] is given as “did not form a heat processed pellet”.

Consider `O=C(CCCCCCCCCCCCC(=O)Oc1ccc2c3c1O[C@H]1C(=O)CC[C@@]4(O)[C@@H](C2)N(CC2CC2)CC[C@]314)Oc1ccc2c3c1O[C@H]1C(=O)CC[C@@]4(O)[C@@H](C2)N(CC2CC2)CC[C@]314` [Compound 9, bis((4R,4aS,7aR,12bS)-3-(cyclopropylmethyl)-4a-hydroxy-7-oxo-2,3,4,4a,5,6,7,7a-octahydro-1H-4,12-methanobenzofuro[3,2-e]isoquinolin-9-yl) tetradecanedioate], for which the “Release in phosphate buffered saline” value in data set [1] is reported as “Near zero order for > 7 days”. In addition, in data set [2], the “Pellet formation?” value is given as “✓ (FIG. 10B)”.

As for `CCC(C)(CC(=O)Oc1ccc2c3c1O[C@H]1C(=O)CC[C@@]4(O)[C@@H](C2)N(CC2CC2)CC[C@]314)CC(=O)Oc1ccc2c3c1O[C@H]1C(=O)CC[C@@]4(O)[C@@H](C2)N(CC2CC2)CC[C@]314` [Compound 10, bis((4R,4aS,7aR,12bS)-3-(cyclopropylmethyl)-4a-hydroxy-7-oxo-2,3,4,4a,5,6,7,7a-octohydro-1H-4,12-methanobenzofuro[3,2-e]isoquinolin-9-yl) 3-ethyl-3-methylpentonedioate], in data set [1], the “Release in phosphate buffered saline” value was “Near zero order for > 7 days”. The “Pellet formation?” value in data set [2] is listed as “✓ (FIG. 11B)”.

Take `O=C(OCCCCCCOC(=O)Oc1ccc2c3c1O[C@H]1C(=O)CC[C@@]4(O)[C@@H](C2)N(CC2CC2)CC[C@]314)Oc1ccc2c3c1O[C@H]1C(=O)CC[C@@]4(O)[C@@H](C2)N(CC2CC2)CC[C@]314` [Compound 11, bis((4R,4aS,7aR,12bS)-3-(cyclopropylmethyl)-4a-hydroxy-7-oxo-2,3,4,4a,5,6,7,7a-octohydro-1H-4,12-methanobenzofuro[3,2-e]isoquinolin-9-yl) hexane-1,6-diyl bis(carbonate)]: the “Release in phosphate buffered saline” value in data set [1] is “Near zero order for > 7 days”. Besides, the “Pellet formation?” value in data set [2] is given as “✓ (FIG. 12B)”.

Turning to `O=C(OCC1CCC(COC(=O)Oc2ccc3c4c2O[C@H]2C(=O)CC[C@@]5(O)[C@@H](C3)N(CC3CC3)CC[C@]425)CC1)Oc1ccc2c3c1O[C@H]1C(=O)CC[C@@]4(O)[C@@H](C2)N(CC2CC2)CC[C@]314` (stereo partly drawn) [Compound 12, cyclohexane-1,4-diylbis(methylene) bis((4R,4aS,7aR,12bS)-3-(cyclopropylmethyl)-4a-hydroxy-7-oxo-2,3,4,4a,5,6,7,7a-octohydro-1H-4,12-methanobenzofuro[3,2-e]isoquinolin-9-yl) bis(carbonate)], the “Release in phosphate buffered saline” value in data set [1] is listed as “Near zero order for > 7 days”.

For `COc1ccc2cc([C@H](C)C(=O)OCC3CCC(COC(=O)[C@@H](C)c4ccc5cc(OC)ccc5c4)CC3)ccc2c1` (stereo partly drawn) [Compound 16, cyclohexane-1,4-diylbis(methylene) (2S,2S)-bis(2-(6-methoxynaphthalen-2-yl)proponoote)], in data set [2], the “Pellet formation by heat molding” value was “deformed during the process of removal from the mold”.

Take `CCN[C@H]1C[C@H](C)S(=O)(=O)c2sc(S(=O)(=O)NC(=O)OCCCCCCCCOC(=O)NS(=O)(=O)c3cc4c(s3)S(=O)(=O)[C@@H](C)C[C@@H]4NCC)cc21` [Compound 22, 8-(((((4S,6S)-4-(ethylamino)-6-methyl-7,7-dioxido-5,6-dihydro-4H-thieno[2,3-b]thiopyron-2-yl)sulfonyl)carbamoyl)oxy)octyl (((4S,6S)-4-(ethylamino)-6-methyl-7,7-dioxido-5,6-dihydro-4H-thieno[2,3-b]thiopyron-2-yl)sulfonyl)carbomate]: the “Pellet formation by heat molding” value in data set [2] is reported as “Neither compound formed a viscous liquid that could be pressed into a pellet”.
